Results on 91 compounds are retold here after PubChem BioAssay AID720513 (Broad Institute, 2013).

Results filed as inconclusive are left out.

The assay concerns U2OS PGC1a acetylation AlphaLISA, overnight. Description: activators raising PGC1a acetylation in cells, dose response, cell-based, cherry-picked samples, set 6 (AID 720513).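 Also: cells made to overexpress flag tagged PGC1a plus GCN5 acetyltransferase by viral infection.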
Take `Cc1ccc(-n2cccn2)c(CN2CCCC(C(=O)c3sccc3C)C2)c1` (stereo unspecified): the AC40 is 9.08 µM.
With `O=C(Nc1cnc2ccccc2c1)c1cccnc1`, the AC40 is 0.651 µM.
The value for `C[C@@H]1CN([C@H](C)CO)C(=O)c2cc(N(C)C)ccc2O[C@@H](C)CCCCO[C@H]1CN(C)C(=O)Cc1ccccc1` was 5.69 µM; that for `CC1(Cc2ccc(Cl)s2)C(=O)Nc2c(Cl)ccc(Cl)c21` (stereo unspecified) was 11.3 µM; that for `OC1CCCC1NCc1ccnc2cc(Cl)ccc12` (stereo unspecified) was 10.6 µM.
Under `COc1ccc(N(C(=O)c2snc(C(N)=O)c2N)C(C(=O)NC2CCCCC2)c2ccc(F)cc2)c(OC)c1` (stereo unspecified) stands 3.26 µM; under `C[C@@H]1CN([C@@H](C)CO)C(=O)c2c(c3ccccc3n2C)-c2ccccc2CO[C@@H]1CN(C)C(=O)Oc1ccccc1`, 7.26 µM; under `CC(NS(=O)(=O)c1ccccc1Cl)C1CC2CCC1C2` (stereo unspecified), 0.415 µM.
Under `C[C@H](CO)N1C[C@H](C)[C@@H](CN(C)Cc2ccc3c(c2)OCO3)Oc2cc(Br)ccc2S1(=O)=O` stands 18.6 µM; under `CCOC(=O)C1=C[C@@H](C(C)(C)C)N(S(=O)(=O)c2ccc(C)cc2)[C@H]1c1ccccc1`, 3.62 µM; under `CCN1CCN(c2cc(C)c3cc(NC(=O)c4ccc(Br)o4)ccc3n2)CC1`, 8.23 µM.
With `NC(=O)Cn1cc(C(=O)c2cccs2)c2ccccc21`, the AC40 is 3.92 µM.
For `COc1ccc(S(=O)(=O)N(C)CC(=O)Nc2cccc(C(C)=O)c2)cc1Cl`, the AC40 was 9.1 µM.
The value for `COc1ccc(C#Cc2c(-c3ccccc3)n(-c3ccccc3)c3ccc(CO)cc23)cc1` was 2.19 µM.
Under `O=C(NN1c2ccccc2CCc2ccccc21)c1ccccc1Br` stands 4.84 µM.
The value for `Nc1c(C(=O)Nc2ccccc2)sc2ncc([N+](=O)[O-])cc12` was 1.06 µM; that for `COc1cccc(CN2C[C@@H]3N[C@H](C2)C3c2ccc(-c3ccccc3F)cc2)c1` (stereo partly specified) was 16.3 µM; that for `Fc1ccc(CN(Cc2ccccc2)C(c2cccs2)c2nnnn2C2CCCCC2)cc1` (stereo unspecified) was 12.7 µM.
Take `C=C/C=C/[C@@H]1C(=C)CN2[C@H]1[C@H](Cc1ccccc1)OC(=O)[C@@H]2Cc1ccccc1`: the AC40 was 11.6 µM.
The value for `N#Cc1ccc(C(=O)CSc2nnc(-c3ccc(C(F)(F)F)cn3)s2)cc1` was 17.8 µM.
Under `O=C(Cc1ccc(Cl)cc1)c1c[nH]c(C(=O)NCc2cccnc2)c1` stands 3.56 µM; under `O=C(CSc1nc2c(sc3ccccc32)c(=O)n1CCc1ccccc1)NCc1ccco1`, 18.1 µM; under `O=C(Nc1cccc(C(F)(F)F)c1)c1sc(Cl)nc1C(F)(F)F`, 3.01 µM.
The value for `O=C(C(Cc1ccccc1)n1cccc1)N1CCN(c2ccccc2)CC1` (stereo unspecified) was 7.54 µM; that for `O=C(CSc1nc2ccccc2c(=O)n1CC1CCCO1)N1CCN(c2ccccc2)CC1` (stereo unspecified) was 18.6 µM; that for `COc1cc(NC(=O)c2cccs2)c(OC)cc1NC(=O)CCC(=O)Nc1ccc2ncccc2c1` was 0.785 µM.
Consider `C[C@H]1CN([C@@H](C)CO)C(=O)c2cccc(NS(=O)(=O)c3ccc(F)cc3)c2O[C@H]1CN(C)Cc1ccc(C(F)(F)F)cc1`, for which the AC40 was 1.3 µM.
The value for `O=C(NCc1cccnc1)c1ccc(NC(=O)c2cccc([N+](=O)[O-])c2)cc1` was under 0.16 µM; that for `CC(=O)Nc1ccc(Nc2ncnc3c2cnn3-c2ccc(C)cc2C)cc1` was 2.53 µM.
Take `COc1ccc([C@H]2/C=C\CN(S(=O)(=O)/C=C/c3ccccc3)[C@@H](C)C(=O)N2Cc2ccc(F)cc2)cc1`: the AC40 is 5.99 µM.
The value for `COC(=O)[C@H](Cc1ccccc1)N(C)S(=O)(=O)c1cccc(S(=O)(=O)N(C)[C@@H](Cc2ccccc2)C(=O)OC)c1` was 9.66 µM; that for `Oc1ccc(Nc2nnc(-c3ccc(O)cc3)c3ccccc23)cc1` was 1.57 µM; that for `Cc1cc(S(=O)(=O)c2ccc([N+](=O)[O-])cn2)ccc1Br` was 0.421 µM.
The value for `COc1ccc(-c2nc(N)c(C#N)c(-c3cccnc3)c2C)cc1` was 0.69 µM.
Under `Cc1nnc(NCc2ccccc2)c2ccccc12` stands 3.04 µM.
As to `Cc1coc2cc3oc(=O)c(CCC(=O)NC4CC4)c(C)c3cc12`, the AC40 was 1.6 µM.
The value for `CC/C(=C(\c1ccc(O)cc1)c1ccc(OCCN(C)C)cc1)c1ccccc1` was 2.41 µM; that for `Cc1cccc(C)c1-n1nnnc1C(c1cccs1)N1CCC(n2c(=O)[nH]c3ccccc32)CC1` (stereo unspecified) was 5.87 µM.
Under `COc1ccc(-c2cc(-c3ccccc3O)[nH]n2)cc1OC` stands 7.33 µM; under `CCOC(=O)C1(Cc2ccccc2)CCN(Cc2cccc(OC)c2O)CC1`, 6.65 µM.
Under `Cc1cccc2sc(N3CCN(C(=O)c4cccs4)CC3)nc12` stands 16.7 µM; under `OCCNc1nc(N2CCCCC2)nc2ccccc12`, 18.1 µM.
As for `CCOC(=O)CCc1c(C)c2ccc(O)cc2oc1=O`, the AC40 was 0.371 µM.
The value for `Cc1ccc(Nc2nnc(C)c3ccccc23)c(C)c1` was 2.09 µM; that for `COc1ccccc1-c1ccc(C2[C@@H]3CN(Cc4cccc(F)c4)C[C@H]2N3)cc1` (stereo partly specified) was 7.21 µM; that for `CCOc1ccc(-c2nnn(CC#N)n2)cc1OC` was 1.96 µM.
Under `Nc1c(C(=O)Nc2ccccc2)c2nc3ccccc3nc2n1CCCN1CCOCC1` stands 4.85 µM; under `Cc1c(C(=O)NCCSCc2c(F)cccc2Cl)cnn1-c1ccc(Cl)cc1`, 10.5 µM.
Take `CCN1CCN(c2ncc(C(=O)Nc3cc(Cl)ccc3OC)c3ccccc23)CC1`: the AC40 is 5.32 µM.
Under `CC(C)(C)c1ccc(NC(=O)N2CCCN(c3ccc([N+](=O)[O-])cn3)CC2)cc1` stands 0.25 µM; under `COc1cccc(-c2ccc(C3[C@@H]4CN(S(=O)(=O)c5cccc(OC)c5)C[C@H]3N4)cc2)c1` (stereo partly specified), 10.5 µM; under `C=CCS(=O)(=O)c1nc2ccccc2s1`, 2.99 µM.
Turning to `O=C(c1ccc(NC(=O)C2(c3ccccc3)CCOCC2)cc1)N1CCOCC1`, the AC40 is 16.6 µM.
The value for `CCC(C)(C)n1nnnc1CN(Cc1ccc(Cl)cc1)Cc1ccco1` was 1.39 µM; that for `O=S(=O)(NC12CC3CC(CC(C3)C1)C2)c1ccc(F)cc1` was 4.02 µM; that for `COc1ccc(-n2c(=O)c3c4c(sc3n3c(=S)[nH]nc23)CCC4)cc1` was 0.563 µM.
Under `O=C(Nc1ccc(Nc2ccncc2)cc1)c1ccc([N+](=O)[O-])cc1` stands 3.4 µM; under `CCOC(=O)C1=C[C@@H](C(C)C)N(S(=O)(=O)c2ccc(C)cc2)[C@H]1c1ccc(C(F)(F)F)cc1`, 2.64 µM; under `COc1ccc(C2N(S(=O)(=O)c3ccccc3)CCN2S(=O)(=O)c2ccc(C)cc2)cc1` (stereo unspecified), 6.61 µM.
On to `Cc1cc(C)cc(N(CC(=O)NC2CC3CCC2C3)S(C)(=O)=O)c1` (stereo unspecified), for which the AC40 is 17.1 µM.
Under `Cc1c(C(=O)N2CCN(c3ccccn3)CC2)sc2ncnc(N3CCN(c4ccccc4)CC3)c12` stands 10.9 µM; under `CC(=O)c1ccc(N2CCN(C(=O)C(=O)c3c(C)[nH]c4ccccc34)CC2)cc1`, 0.996 µM; under `COc1ccc2c(c1)CCc1c(C(=O)NCCCn3ccnc3)noc1-2`, 18.9 µM.
The value for `COc1ccc(CCNCc2ccc(-c3ccccc3)cc2)cc1OC` was 2.23 µM.
As to `CC(C)(C)n1nnnc1CN(Cc1ccc(F)cc1)Cc1ccco1`, the AC40 is 1.73 µM.
For the compound `O=C(/C=C/Sc1ncn[nH]1)c1ccc(Cl)cc1`, the AC40 is 0.395 µM.
The value for `O=C(CCCCCN1C(=O)c2cccc3cccc(c23)C1=O)NCc1cccnc1` was 0.207 µM.
Under `COc1cc(C)c(CN2CCN(S(=O)(=O)c3ccc(Cl)s3)CC2)cc1OC` stands 0.525 µM.
Consider `CN1C(=O)/C(=C\c2ccc(N3CCCCC3)o2)C(=O)NC1=S`, for which the AC40 is 4.61 µM.
Under `Cc1cccc(CS(=O)(=O)c2ncc(Cl)c(C(=O)Nc3ccc(F)cc3)n2)c1` stands 1.56 µM; under `N#Cc1ccccc1S(=O)(=O)N1CCN(Cc2cc3c(cc2Br)OCCO3)CC1`, 0.934 µM; under `O=C(CCCc1nc(-c2ccccc2Cl)no1)NCc1cccnc1`, 3.78 µM.
Under `Cc1noc(C)c1S(=O)(=O)Nc1ccc2c(c1)C(=O)N([C@@H](C)CO)C[C@@H](C)[C@@H](CN(C)Cc1ccc3c(c1)OCO3)OCCCC[C@@H](C)O2` stands 3.78 µM.
As to `COCCN(C)Cc1nc(C(c2ccccc2)c2ccccc2)no1`, the AC40 is 9.12 µM.
As for `O=C(CN1CCC(n2nnc3cc(F)ccc32)CC1)Nc1ccc2c(c1)CCC2`, the AC40 is 2.71 µM.
For `Cc1ccccc1-c1ccc2c(c1)O[C@H](CN(C)Cc1ccncc1)[C@@H](C)CN([C@@H](C)CO)S2(=O)=O`, the AC40 was 14.9 µM.
Under `Nc1c(C(=O)c2ccccc2)sc2nsc(SCCN3CCCC3)c12` stands 9.72 µM; under `O=C(NCc1ccccc1)C(c1ccccc1)N(C(=O)c1csnn1)c1ccc(F)cc1` (stereo unspecified), 4.34 µM; under `Cc1cccc(C)c1OC1(c2ccccc2)OC(=O)c2ccccc21` (stereo unspecified), 1.1 µM.
Under `Cc1cc(C)c2c(-n3cccc3)c(C(=O)NNS(=O)(=O)c3ccccc3)sc2n1` stands 4.82 µM.
For the compound `C[C@H]1CN([C@@H](C)CO)S(=O)(=O)c2ccc(C#CCN(C)C)cc2O[C@@H]1CN(C)Cc1ccc2c(c1)OCO2`, the AC40 was 4.76 µM.
The value for `COc1ccc(N(C(=O)c2csnn2)C(C(=O)NC2CCCC2)c2cccs2)cc1` (stereo unspecified) was 2.62 µM; that for `COc1ccc(N(C(=O)c2snc(C(N)=O)c2N)C(C(=O)NC2CCCC2)c2ccco2)c(OC)c1` (stereo unspecified) was 3.85 µM; that for `COc1ccc(CCNC(=O)c2cc(-c3ccco3)on2)cc1OC` was 5.2 µM.
As to `Cc1csc(NC(=O)NC2(C(F)(F)F)Oc3ccccc3O2)n1`, the AC40 was 6.24 µM.
The value for `CO[C@@H](C(=O)N(C)C[C@H]1OCc2ccccc2-c2c(n(C)c3ccccc23)C(=O)N([C@H](C)CO)C[C@H]1C)c1ccccc1` was 8.25 µM; that for `O=C(c1ccco1)N1CCN(c2nnc(-c3ccccc3)c3ccccc23)CC1` was 4.28 µM; that for `CCOc1ccc(NC(=O)CN2CCC(n3cnc4cc(F)ccc43)CC2)cc1` was 2.84 µM.
Under `O=C(Cc1ccccc1)Nc1nc(-c2ccc(F)c(F)c2)cs1` stands 1.44 µM; under `COc1ccc(Cn2nnnc2C(C(C)C)N(Cc2ccco2)Cc2cccs2)cc1` (stereo unspecified), 2.6 µM; under `O=[N+]([O-])c1ccc(N2CCN(CC3CCCCC3)CC2)cc1`, 16 µM.
